Test results as given in patent US9562059B2, “Anticancer maytansinoids with two fused macrocyclic rings” (priority 2013, dated 2017).
“Also recorded” adds a separate entry of the source. Where two headings read alike, the source gives them in different places.

Experiments:
[1] = tested on: human oral epidermoid carcinoma KB cell line; test: Cell culture panel bioassay, KB cell line; type: cell-based; conditions: read-out: IC50 KB
Excerpt: (§1) Human oral epidermoid carcinoma KB cell line, human promyelocytic leukemia HL-60 cell line, human prostate carcinoma LNCaP cell line, human breast carcinoma MCF-7 cell line, human colon carcinoma Col2 cell line, and human lung carcinoma Lu1 cell line are activated from the frozen cells that are stored in Department of Medicinal Chemistry and Pharmacognosy, University of Illinois at Chicago, Chicago, Ill. Col2 cells are maintained in MEME medium. KB cells are maintained in DMEM medium. LNCaP cells are maintained in RPMI1640 medium with hormone-free 10% […] FBS (fetal bovine serum) supplemented with 0.1 nM testosterone, Lu1 cells are cultured in MEME medium. MCF-7 cells are maintained in MEME medium containing 10 mg/L of insulin. In each case, PSF (100 units/mL penicillin G, 100 μg/mL streptomycin sulfate, 250 ng/mL amphotericin B) is added. All media are supplemented with 10% heat-inactivated FBS.
(§2) Extracts, fractions, and compounds are tested in a human oral epidermoid carcinoma (KB) cell line using established protocols. In addition, all pure compounds are evaluated against the other human cancer cell lines comprising our cytotoxicity screening panel. Cytotoxicity assays involving colon (Col-2), prostate (LNCaP), and lung (Lu1) carcinoma cell lines are performed using sulforhodamine B according to established protocols.

[2] = tested on: human lung carcinoma Lu1 cell line; test: Cell culture panel bioassay, Lu1 cell line; type: cell-based
Excerpt: as §1, §2

[3] = tested on: human colon carcinoma Col2 cell line; test: Cell culture panel bioassay, Col2 cell line; type: cell-based
Excerpt: as §1, §2

[4] = tested on: human prostate carcinoma LNCaP cell line; test: Cell culture panel bioassay, LNCaP cell line; type: cell-based; conditions: for IC50: read-out: IC50 LNCaP
Excerpt: as §1, §2

[5] = tested on: human breast carcinoma MCF-7 cell line; test: Cell culture panel bioassay, MCF-7 cell line; type: cell-based
Excerpt: as §1, §2

[6] = tested on: KB, Col-2, LNCaP, Lu-1, and MCF-7 cell lines; test: In vitro anti-tumor activity against the tumor cell line panel; type: cell-based, human; conditions: Lu-1, MCF-7
Procedure: The in vitro anti-tumor activity of isolated compounds (1-6) is evaluated against KB, Col-2, LNCaP, Lu-1, and MCF-7 cell lines. […] However, because of the much different stereochemistry, the bimacrocyclic maytansinoid may have a different anticancer therapeutic window from that of mono-macrocyclic maytansine derivatives.
as §1, with “In each case, PSF (100 units/mL penicillin G, 100 μg/mL streptomycin sulfate, 250 ng/mL amphotericin B) is added. All media are supplemented with 10% heat-inactivated FBS.” left out
Extracts, fractions, and compounds are tested in a human oral epidermoid carcinoma (KB) cell line using established protocols. In addition, all pure compounds are evaluated against the other human cancer cell lines comprising our cytotoxicity screening panel. […]

[7] = tested on: Lu1 cells; test: In vivo hollow fiber test, Lu1 cells; set-up: species or system mice
Procedure: (§3) Hollow fiber tests are well known in the art for providing preliminary indications of therapeutic efficacy (Mi et al. (2002), J. Nat. Prod. 65: 842-850). In hollow fiber tests, human tumor cell lines currently employed in cell cultures are grown inside semipermeable hollow fibers to form heterogeneous solid tumor models. The hollow fibers containing the human tumor cells are implanted in the intraperitoneal or subcutaneous compartments of host mice, and the mice treated with the test compound of interest (Hollingshead et al, (1995), Life Sciences 57(2):131-141).
(§4) Loeseneriellin B isolated from Loeseneriella pauciflora (Celastraceae) is tested for in vivo hollow fiber study.

[8] = tested on: Col2 cells; test: In vivo hollow fiber test, Col2 cells; set-up: species or system mice
Procedure: as §3, §4

[9] = tested on: MCF7 cells; test: In vivo hollow fiber test, MCF7 cells; set-up: species or system mice
Procedure: as §3, §4

[10] = tested on: HCT116 cancer cells; test: HCT116 xenograft mouse model, tumor growth; type: in vivo, nude mice; conditions: for average tumor size (L×W×W) suppressed in comparison with the control group: after 21 days
Procedure: (§5) HCT116 cancer cells (2×10^7 cells in 100 μL suspension) are subcutaneously implanted in the rear flank of each mouse. After 10 days, solid tumors appear at the implanted sites. […] Daily injections at i.v. sites were scheduled for 21 days.
(§6) FIGS. 1 to 3 show the inhibition of HCT116-tumor xenograft growth by loeseneriellin B. The treatment started on the 10th day when the tumor size reached approximately 100 mm^3 (L×W×W).

[11] = HCT116 xenograft mouse model, body weight; type: in vivo, nude mice; conditions: 20 and 40 μg/kg i.v. daily for 3 weeks (FIG. 3)
Procedure: as §5, §6

[12] = cited from earlier work
[13] = tested on: KB cells; conditions: Powell et al. (1982); cited from earlier work
[14] = tested on: P388 lymphocytic leukemia; conditions: Powell et al. (1982); cited from earlier work
[15] = concentration required to inhibit cell growth by 50%, triplicate experiments
[16] = concentration required to inhibit cell growth by 50%, triplicate experiments, read-out: IC50 Lu1
[17] = concentration required to inhibit cell growth by 50%, triplicate experiments, read-out: IC50 Col2
[18] = concentration required to inhibit cell growth by 50%, triplicate experiments, read-out: IC50 MCF-7

## COc1cc2cc(c1Cl)N1CC(C)C(C)(O)C(=O)N[C@@H](C)C(=O)O[C@@H](CC1=O)[C@]1(C)OC1[C@H](C)[C@@H]1C[C@@](O)(NC(=O)O1)[C@H](OC)/C=C/C=C(\C)C2 (some centres unmarked) [Compound 1, Loeseneriellin B]
[1]; Homo sapiens, KB
  IC50: 0.15 nM
[2]; Homo sapiens, Lu1, read-out: IC50 Lu1
  IC50: 0.71 nM
[3]; Homo sapiens, Col2, read-out: IC50 Col2
  IC50: 0.2 nM
[4]; Homo sapiens, LNCaP
  IC50: 0.25 nM
[5]; Homo sapiens, MCF7, read-out: IC50 MCF-7
  IC50: 0.68 nM
[6]
  bioactivity compared with maytansine (3): comparable bioactivity to that of maytansine
[7]; Lu1-IP, dose 0.05 mg/kg
  Inhibition (%): 34.9%
[7]; Lu1-IP, dose 0.1 mg/kg
  Inhibition (%): 20.9%
[7]; Lu1-SC, dose 0.05 mg/kg
  Inhibition (%): 0%
[7]; Lu1-SC, dose 0.1 mg/kg
  Inhibition (%): 0%
[8]; Col2-IP, dose 0.05 mg/kg, listed as Loeseneriellin B
  Inhibition (%): 65.5%
[8]; Col2-IP, dose 0.05 mg/kg, listed as loeseneriellin B
  Inhibition (%): more than 65%
[8]; Col2-IP, dose 0.1 mg/kg
  Inhibition (%): 70.5%
[8]; Col2-SC, dose 0.05 mg/kg
  Inhibition (%): 0%
[8]; Col2-SC, dose 0.1 mg/kg
  Inhibition (%): 1.4%
[9]; MCF7-IP, dose 0.05 mg/kg, listed as Loeseneriellin B
  Inhibition (%): 57.2%
[9]; MCF7-IP, dose 0.05 mg/kg, listed as loeseneriellin B
  Inhibition (%): more than 65%
[9]; MCF7-IP, dose 0.1 mg/kg
  Inhibition (%): 75.5%
[9]; MCF7-IP, dose 0.2 mg/kg
  Inhibition (%): 84.6%
[9]; MCF7-SC, dose 0.05 mg/kg
  Inhibition (%): 0%
[9]; MCF7-SC, dose 0.1 mg/kg
  Inhibition (%): 0%
[9]; MCF7-SC, dose 0.2 mg/kg
  Inhibition (%): 40.1%
[10]; high dose 40 μg/kg i.v. daily for 3 weeks (FIG. 2)
  excised tumor weights, % inhibition versus control: 41.7%
[10]; high dose 40 μg/kg i.v. daily
  average tumor size (L×W×W) suppressed in comparison with the control group: 41.7%
[10]; low dose 20 μg/kg i.v. daily for 3 weeks (FIG. 2)
  excised tumor weights, % inhibition versus control: 38.3%
[10]; low dose 20 μg/kg i.v. daily
  average tumor size (L×W×W) suppressed in comparison with the control group: 38.3%
[11]
  body weights of mice: No apparent weight loss; also recorded: insignificant change in body weights

## COc1cc2cc(c1Cl)N(C)C(=O)C[C@H](OC(=O)[C@H](C)N(C)C(C)=O)[C@]1(C)O[C@H]1[C@H](C)[C@@H]1C[C@@](O)(NC(=O)O1)[C@H](OC)/C=C/C=C(\C)C2 [Compound 3, Maytansine]
[1]; [15]
  IC50: 0.17 nM
[2]; [16]
  IC50: 0.77 nM
[3]; [17]
  IC50: 0.19 nM
[4]; [15]
  IC50: 0.32 nM
[5]; [18]
  IC50: 0.69 nM
[12]
  systemic toxicity in human clinical trials: unacceptable systemic toxicity

## CCC(=O)N(C)[C@@H](C)C(=O)O[C@H]1CC(=O)N(C)c2cc(cc(OC)c2Cl)C/C(C)=C/C=C[C@@H](OC)[C@@]2(O)C[C@H](OC(=O)N2)[C@@H](C)[C@@H]2O[C@@]12C [Compound 4, Maytanprine]
[1]; [15]
  IC50: 0.061 nM
[2]; [16]
  IC50: 0.35 nM
[3]; [17]
  IC50: 0.16 nM
[4]; [15]
  IC50: 0.16 nM
[5]; [18]
  IC50: 0.17 nM

## COc1cc2cc(c1Cl)N(C)C(=O)C[C@H](OC(=O)C(C)N(C)C(=O)C(C)C)[C@]1(C)O[C@H]1[C@H](C)[C@@H]1C[C@@](O)(NC(=O)O1)[C@H](OC)/C=C/C=C(\C)C2 (some centres unmarked) [Compound 5, Maytanbutine]
[1]; [15]
  IC50: 0.05 nM
[2]; [16]
  IC50: 0.13 nM
[3]; [17]
  IC50: 0.061 nM
[4]; [15]
  IC50: 0.054 nM
[5]; [18]
  IC50: 0.13 nM

## COc1cc2cc(c1Cl)N(C)C(=O)CC(OC(=O)C(C)N(C)C(=O)CC(C)C)C1(C)OC1C(C)C1CC(O)(NC(=O)O1)C(OC)/C=C/C=C(\C)C2 (centres unmarked) [Compound 6, Maytanvaline]
[1]; [15]
  IC50: 0.11 nM
[2]; [16]
  IC50: 0.69 nM
[3]; [17]
  IC50: 0.15 nM
[4]; [15]
  IC50: 0.16 nM
[5]; [18]
  IC50: 0.27 nM

## CC(=O)O[C@H]1C(=O)[C@@]2(C)[C@H]([C@H](OC(=O)c3ccccc3)[C@]3(O)C[C@H](OC(=O)[C@H](O)[C@@H](NC(=O)c4ccccc4)c4ccccc4)C(C)=C1C3(C)C)[C@]1(OC(C)=O)CO[C@@H]1C[C@@H]2O [Paclitaxel]
[2]; Homo sapiens, Lu1, at 20 ng/mL, positive control, read-out: inhibition against Lu-1
  inhibition at 0.02 µg/mL: 56%
[3]; Homo sapiens, Col2, at 20 ng/mL, positive control, read-out: inhibition against Col2
  inhibition at 0.02 µg/mL: 76%
[4]; Homo sapiens, LNCaP, at 20 ng/mL, positive control, read-out: inhibition against LNCaP
  inhibition at 0.02 µg/mL: 89%
[5]; Homo sapiens, MCF7, at 20 ng/mL, positive control, read-out: inhibition against MCF-7
  inhibition at 0.02 µg/mL: 71%
[7]; Lu1-IP, dose 2.0 mg/kg
  Inhibition (%): 39.9%
[7]; Lu1-SC, dose 2.0 mg/kg
  Inhibition (%): 0%
[8]; Col2-SC, dose 2.0 mg/kg
  Inhibition (%): 6.9%
[9]; MCF7-IP, dose 2.0 mg/kg
  Inhibition (%): 71.3%
[9]; MCF7-SC, dose 2.0 mg/kg
  Inhibition (%): 0%
[10]; 5 mg/kg i.v. daily for 3 weeks (FIG. 2)
  excised tumor weights, % inhibition versus control: 37.6%

## COc1cc2cc(c1Cl)N1CCC(C)(O)C(=O)N[C@@H](C)C(=O)O[C@@H](CC1=O)[C@]1(C)OC1[C@H](C)[C@@H]1C[C@@](O)(NC(=O)O1)[C@H](OC)/C=C/C=C(\C)C2OC (some centres unmarked) [treflorine]
[13]
  antitumor activity against KB cells: retain antitumor activity
[14]
  antitumor activity against P388 lymphocytic leukemia: retain antitumor activity

## COc1cc2cc(c1Cl)N1CC(O)C(C)(O)C(=O)N[C@@H](C)C(=O)O[C@@H](CC1=O)[C@]1(C)OC1[C@H](C)[C@@H]1C[C@@](O)(NC(=O)O1)[C@H](OC)/C=C/C=C(\C)C2OC (some centres unmarked) [trenudine]
[13]
  antitumor activity against KB cells: retain antitumor activity
[14]
  antitumor activity against P388 lymphocytic leukemia: retain antitumor activity

## CC[C@]1(O)C[C@@H]2CN(CCc3c([nH]c4ccccc34)[C@@](C(=O)OC)(c3cc4c(cc3OC)N(C)[C@H]3[C@@](O)(C(=O)OC)[C@H](OC(C)=O)[C@]5(CC)C=CCN6CC[C@]43[C@@H]65)C2)C1 [vinblastine, Vinblastine]
[2]; Homo sapiens, Lu1, at 40 ng/mL, positive control, read-out: inhibition against Lu-1
  inhibition at 0.04 µg/mL: 54%
[3]; Homo sapiens, Col2, at 40 ng/mL, positive control, read-out: inhibition against Col2
  inhibition at 0.04 µg/mL: 87%
[4]; Homo sapiens, LNCaP, at 40 ng/mL, positive control, read-out: inhibition against LNCaP
  inhibition at 0.04 µg/mL: 89%
[5]; Homo sapiens, MCF7, at 40 ng/mL, positive control, read-out: inhibition against MCF-7
  inhibition at 0.04 µg/mL: 70%

## Loeseneriellin A [Compound 2]
[1]; [15]
  IC50: 0.1 nM
[2]; [16]
  IC50: 0.38 nM
[3]; [17]
  IC50: 0.18 nM
[4]; [15]
  IC50: 0.18 nM
[5]; [18]
  IC50: 0.19 nM
